Assay in all cases: Postemergence herbicidal activity of mixtures in the field (direct-seeded rice), visual weed control
What all share (format): in vivo

Assay [1] concerns Cyperus iria (CYPIR, rice flatsedge). To be noted: grams ai/ha: penoxsulam 1, bentazon-Na 112.5, cyhalofop-butyl 9.4, each alone or all three mixed, rice field trials. As for the experimental part: (§1) Evaluation of Postemergence Herbicidal Activity of Mixtures in the Field
(§2) Field trials were conducted in Vietnam and Taiwan in cultivated direct-seeded rice using standard herbicide small plot research methodology. Plots varied from 1×2 meter (m) to 4×5 m (width×length) with 3-4 replicates per treatment. The rice crop was grown using normal cultural practices for fertilization, seeding, watering, flooding and maintenance to ensure good growth of the crop and the weeds.
(§3) All treatments in the field trials were applied using a backpack air sprayer with flat fan nozzles calibrated to apply 320 to 450 L/ha spray volume at approximately 30 PSI. Commercially available products of penoxsulam (Clipper 25OD), bispyribac-sodium (Nominee 100SC), bentazon-sodium (Basagran 480SL), cyhalofop-butyl (Clincher 100EC), and fenoxaprop-P-ethyl (Whip S) were mixed in water at appropriate formulated product rates to achieve the desired rates based on a unit area of application (hectare) to achieve the desired rates as shown. Treatments were rated at 7 to 42 days after application (DAA) as compared to the untreated control plants. Visual weed control was scored on a scale of 0 to 100 percent where 0 corresponds to no injury and 100 corresponds to complete kill.
(§4) All treatment results, both for the single product and mixtures, are an average of 3 to 4 replicates and the tank mix interactions are significant at the […] level.
(§5) Colby's equation was used to determine the herbicidal effects expected from the mixtures (Colby, S. R. Calculation of the synergistic and antagonistic response of herbicide combinations. Weeds 1967, 15, 20-22.).
(§6) The following equation was used to calculate the expected activity of mixtures containing […]: Expected=A+B+C−(AB+AC+BC)/100+(ABC)/10,000
(§7) A=observed efficacy of active ingredient A at the same concentration as used in the mixture.
(§8) B=observed efficacy of active ingredient B at the same concentration as used in the mixture.
(§9) C=observed efficacy of active ingredient C at the same concentration as used in the mixture.
(§10) All comparisons are an average of 3 to 4 replicates and are significant at the […] level.

The subject of assay [2] is Monochoria vaginalis (MOOVA, monochoria). The conditions noted are these: rice field trials. As for the experimental part:
as §1, §2, §3, §4, §5, §6, §7, §8, §9, §10

Assay [3] deals with Leptochloa chinensis (LEFCH, Chinese sprangletop). The conditions noted are these: grams ai/ha: penoxsulam 1.6, bentazon-Na 112.5, cyhalofop-butyl 37.5, each alone or all three mixed, rice field trials. As for the experimental part:
as §1, §2, §3, §4, §5, §6, §7, §8, §9, §10

In assay [4] the test system is Echinochloa crus-galli (ECHCG, barnyardgrass). The conditions noted are these: rice field trials. As for the experimental part: as §1, §2, §3, §4, §5, §6, §7, §8, §9, §10
Assay [5] has as its system Fimbristylis miliacea (FIMMI, globe fringerush). The conditions noted are these: grams ai/ha: penoxsulam 10, bentazon-Na 900, cyhalofop-butyl 75, each alone or all three mixed, rice field trials. As for the experimental part:
as §1, §2, §3, §4, §5, §6, §7, §8, §9, §10

[6] abbreviates: grams ai/ha: penoxsulam 4 alone (6 in the mix), bentazon-Na 450, fenoxaprop-P-ethyl 8, each alone or all three mixed.
Where [7] appears, read: grams ai/ha: penoxsulam 5, bentazon-Na 450, cyhalofop-butyl 37.5, each alone or all three mixed.
Setting [8] is: grams ai/ha: penoxsulam 10, bentazon-Na 900, cyhalofop-butyl 75, each alone or all three mixed.
Setting [9] is: grams ai/ha: bispyribac-Na 4, bentazon-Na 225, cyhalofop-butyl 75, each alone or all three mixed.

Take `CC(C)N1C(=O)c2ccccc2NS1(=O)=O` [Bentazon (Na), 3-(1-methylethyl)-1H-2,1,3-benzothiadiazin-4(3H)-one 2,2-dioxide]: in assay [1], the “% Visual Control CYPIR (42 DAA) Obs” value was determined as 63%. Further, the “% Visual Control MOOVA (7 DAA) Obs” value in assay [2] (setting [6]) is on record as 17%. For the same compound, in assay [2] (setting [7]), the “% Visual Control MOOVA (7 DAA) Obs” value was 0% and the “% Visual Control MOOVA (14 DAA) Obs” value stood at 0%. In assay [3], the “% Visual Control LEFCH (7 DAA) Obs” value came to 0%. Besides, the “% Visual Control ECHCG (7 DAA) Obs” value in assay [4] (setting [6]) is 0%. In addition, in assay [4] (setting [8]), the “% Visual Control ECHCG (7 DAA) Obs” value turned out to be 0%, the “% Visual Control ECHCG (14 DAA) Obs” value is listed as 0% and the “% Visual Control ECHCG (28 DAA) Obs” value was 0%. For the same compound, the “% Visual Control ECHCG (14 DAA) Obs” value in assay [4] (setting [9]) came out at 0%. In assay [5], the “% Visual Control FIMMI (42 DAA) Obs” value stood at 0%.
Take `COc1cc(OC)nc(Oc2cccc(Oc3nc(OC)cc(OC)n3)c2C(=O)[O-])n1.[Na+]` [Bispyribac (Na), sodium 2,6-bis(4,6-dimethoxypyrimidin-2-yloxy)benzoate]: the “% Visual Control ECHCG (14 DAA) Obs” value in assay [4] (setting [9]) turned out to be 0%.
With `CCCCOC(=O)[C@@H](C)Oc1ccc(Oc2ccc(C#N)cc2F)cc1` [Cyhalofop (Butyl), (R)-butyl 2-[4-(4-cyano-2-fluorophenoxy)phenoxy]propanoate], the “% Visual Control CYPIR (42 DAA) Obs” value in assay [1] was found to be 0%. Also, in assay [2] (setting [7]), the “% Visual Control MOOVA (7 DAA) Obs” value came to 0% and the “% Visual Control MOOVA (14 DAA) Obs” value was found to be 0%. Besides, the “% Visual Control LEFCH (7 DAA) Obs” value in assay [3] came out at 83%. Moreover, in assay [4] (setting [8]), the “% Visual Control ECHCG (7 DAA) Obs” value is 37%, the “% Visual Control ECHCG (14 DAA) Obs” value is on record as 43% and the “% Visual Control ECHCG (28 DAA) Obs” value amounted to 40%. Further, in assay [4] (setting [9]), the “% Visual Control ECHCG (14 DAA) Obs” value is 40%. The “% Visual Control FIMMI (42 DAA) Obs” value in assay [5] amounted to 60%.
Turning to `CCOC(=O)[C@@H](C)Oc1ccc(Oc2nc3ccc(Cl)cc3o2)cc1` [Fenoxaprop-P (Ethyl), (R)-ethyl-2-[4-(6-chloro-1,3-benzoxazol-2-yloxy)phenoxy]propanoate], the “% Visual Control MOOVA (7 DAA) Obs” value in assay [2] (setting [6]) came to 0%. Moreover, in assay [4] (setting [6]), the “% Visual Control ECHCG (7 DAA) Obs” value is on record as 0%.
In the case of `COc1cnc(OC)n2nc(NS(=O)(=O)c3c(OCC(F)F)cccc3C(F)(F)F)nc12` [Penoxsulam, 2-(2,2-difluoroethoxy)-N-(5,8-dimethoxy[1,2,4]triazolo[1,5-c]pyrimidin-2-yl)-6-(trifluoromethyl)benzenesulfonamide], the “% Visual Control CYPIR (42 DAA) Obs” value in assay [1] was determined as 75%. In assay [2] (setting [6]), the “% Visual Control MOOVA (7 DAA) Obs” value is reported as 22%. In assay [2] (setting [7]), the “% Visual Control MOOVA (7 DAA) Obs” value was determined as 77% and the “% Visual Control MOOVA (14 DAA) Obs” value is on record as 87%. Also, the “% Visual Control LEFCH (7 DAA) Obs” value in assay [3] is reported as 0%. For the same compound, the “% Visual Control ECHCG (7 DAA) Obs” value in assay [4] (setting [6]) was 61%. Besides, in assay [4] (setting [8]), the “% Visual Control ECHCG (7 DAA) Obs” value is recorded as 58%, the “% Visual Control ECHCG (14 DAA) Obs” value amounted to 60% and the “% Visual Control ECHCG (28 DAA) Obs” value stood at 60%. Besides, the “% Visual Control FIMMI (42 DAA) Obs” value in assay [5] turned out to be 78%.

Values taken from US8785351B2, “Herbicidal compositions containing bentazon and ALS inhibitor and ACCase inhibitor” (Dow AgroSciences LLC, priority 2012, dated 2014).
